Test results as given in ChEMBL document CHEMBL4665820, “Discovery of VU6027459: A First-in-Class Selective and CNS Penetrant mGlu Positive Allosteric Modulator Tool Compound” (ACS Med Chem Lett, 2020).
pEC50, pIC50, pKi: −log10 of the molar value.

Key:
[1] = biological target: Metabotropic glutamate receptor 7 (Rattus norvegicus) (UniProt P35400); experiment: (§1) Positive allosteric modulation of rat mGlu7 receptor expressed in HEK293 cells co-expressing Gai5 assessed as potentiation of L-AP4-induced calcium mobilization preincubated for 140 secs and treated with EC20 L-AP4 for 125 secs and followed by subsequent addition of EC80 L-AP4 by Fluo-4-AM dye based fluorescence assay relative to maximal induction of L-AP4; type: functional, cell-based; details: filed as positive allosteric modulator, time 140.0 sec
Metabotropic glutamate receptor 7 (Rattus norvegicus), sequence (P35400 whole entry): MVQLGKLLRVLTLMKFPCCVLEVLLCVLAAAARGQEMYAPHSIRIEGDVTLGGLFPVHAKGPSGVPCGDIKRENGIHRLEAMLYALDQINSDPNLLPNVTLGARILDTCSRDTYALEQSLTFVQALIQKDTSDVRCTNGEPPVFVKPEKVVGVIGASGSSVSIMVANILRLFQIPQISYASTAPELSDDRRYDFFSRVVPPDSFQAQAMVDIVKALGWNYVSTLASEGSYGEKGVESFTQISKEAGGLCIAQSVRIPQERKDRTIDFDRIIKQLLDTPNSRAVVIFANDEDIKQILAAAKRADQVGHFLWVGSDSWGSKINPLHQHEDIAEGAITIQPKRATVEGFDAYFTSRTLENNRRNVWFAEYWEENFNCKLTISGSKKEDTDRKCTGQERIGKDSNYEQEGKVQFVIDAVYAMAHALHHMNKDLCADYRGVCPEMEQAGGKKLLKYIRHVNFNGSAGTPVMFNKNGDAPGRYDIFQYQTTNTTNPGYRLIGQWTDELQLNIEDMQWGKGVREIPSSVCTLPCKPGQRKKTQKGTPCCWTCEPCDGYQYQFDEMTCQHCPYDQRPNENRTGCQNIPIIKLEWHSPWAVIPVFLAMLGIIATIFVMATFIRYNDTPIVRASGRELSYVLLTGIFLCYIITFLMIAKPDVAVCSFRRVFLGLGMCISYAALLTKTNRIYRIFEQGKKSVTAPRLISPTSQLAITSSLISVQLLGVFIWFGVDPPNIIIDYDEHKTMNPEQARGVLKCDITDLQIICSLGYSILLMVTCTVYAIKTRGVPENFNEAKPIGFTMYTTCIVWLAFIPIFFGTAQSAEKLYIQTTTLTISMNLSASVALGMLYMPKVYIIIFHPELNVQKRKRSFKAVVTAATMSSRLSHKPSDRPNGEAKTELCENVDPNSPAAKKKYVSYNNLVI

[2] = biological target: T1, Metabotropic glutamate receptor 7 (Rattus norvegicus, UniProt P35400); experiment: as §1, with “assay” for “assay relative to maximal induction of L-AP4”; type: functional, cell-based; details: read-out: EC50
T1 sequence (P35400 whole entry): as above

[3] = biological target: T1, Metabotropic glutamate receptor 7; experiment: Positive allosteric modulation of rat mGlu7 expressed in HEK293 cells co- expressing GIRK assessed as potentiation of L-AP4-induced thallium flux incubated for 140 sec by FluoZin2-AM dye based fluorescence analysis; type: cell-based
[4] = Unbound plasma to brain permeability coefficient, Kp of the compound in Sprague-Dawley rat at 0.2 mg/kg, iv measured after 0.25 hrs by LC-MS/MS analysis; type: ADME, organism-based; details: read-out: K(p,uu,brain)
[5] = Fraction unbound in rat plasma at 5 uM incubated for 4 hrs by equilibrium dialysis based LC-MS/MS analysis; type: ADME, cell-free
[6] = Fraction unbound in mouse brain at 5 uM incubated for 6 hrs by equilibrium dialysis based LC-MS/MS analysis; type: ADME, tissue-based
[7] = Hepatic intrinsic clearance in mouse liver microsomes at 1 uM preincubated for 5 mins followed by NADPH addition and measured up to 45 mins by LC-MS/MS analysis; type: ADME, Microsome; details: read-out: CLH
[8] = Fraction unbound in rat brain at 5 uM incubated for 6 hrs by equilibrium dialysis based LC-MS/MS analysis; type: ADME, tissue-based
[9] = Fraction unbound in mouse plasma at 5 uM incubated for 4 hrs by equilibrium dialysis based LC-MS/MS analysis; type: ADME, cell-free
[10] = Plasma to brain permeability coefficient, Kp of the compound in Sprague-Dawley rat at 0.2 mg/kg, iv measured after 0.25 hrs by LC-MS/MS analysis; type: ADME, organism-based
[11] = biological target: Sodium-dependent dopamine transporter (Homo sapiens, UniProt Q01959); experiment: Displacement of […] from recombinant human Dopamine transporter after 120 mins by scintillation counting analysis; type: ADME
Sodium-dependent dopamine transporter, sequence (Q01959 whole entry): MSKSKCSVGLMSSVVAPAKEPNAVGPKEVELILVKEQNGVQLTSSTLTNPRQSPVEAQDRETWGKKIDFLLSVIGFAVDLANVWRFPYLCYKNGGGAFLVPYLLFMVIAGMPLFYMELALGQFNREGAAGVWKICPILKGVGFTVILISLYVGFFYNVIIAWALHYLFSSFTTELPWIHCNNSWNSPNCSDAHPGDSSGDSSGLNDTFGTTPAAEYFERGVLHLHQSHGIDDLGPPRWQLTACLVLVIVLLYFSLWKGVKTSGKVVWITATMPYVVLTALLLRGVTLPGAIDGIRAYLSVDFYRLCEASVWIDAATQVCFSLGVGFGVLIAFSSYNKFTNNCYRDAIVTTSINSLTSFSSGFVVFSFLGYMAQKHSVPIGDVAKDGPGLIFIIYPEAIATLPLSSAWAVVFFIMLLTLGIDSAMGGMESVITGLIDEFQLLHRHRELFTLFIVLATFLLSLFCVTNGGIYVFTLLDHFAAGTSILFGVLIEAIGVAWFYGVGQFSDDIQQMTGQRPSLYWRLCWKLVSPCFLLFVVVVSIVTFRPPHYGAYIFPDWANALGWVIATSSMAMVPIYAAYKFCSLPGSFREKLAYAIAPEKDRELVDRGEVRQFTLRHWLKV

[12] = Hepatic intrinsic clearance in rat liver microsomes at 1 uM preincubated for 5 mins followed by NADPH addition and measured up to 45 mins by LC-MS/MS analysis; type: ADME, Microsome; details: read-out: CLH
[13] = biological target: Metabotropic glutamate receptor 7 (Rattus norvegicus) (UniProt P35400); experiment: Positive allosteric modulation of rat mGlu7 expressed in HEK293 cells co- expressing GIRK assessed as potentiation of L-AP4-induced thallium flux incubated for 140 sec by FluoZin2-AM dye based fluorescence analysis relative to maximal induction of L-AP4; type: cell-based; details: filed as positive allosteric modulator

Structure (SMILES)	Activity [1] [%]	pEC50 [2]	further results
N#Cc1cnc2c(-n3ccnc3)cccc2c1N1CCN(c2ccccc2F)CC1	81	5.17	
N#Cc1cnc2c(O)cc(F)cc2c1N1CCN(c2ccccc2F)CC1	90	< 5.00	
[2H]C([2H])([2H])Oc1cccc2c(N3CCN(c4ccccc4F)CC3)c(C#N)cnc12		5.82	
N#Cc1cnc2c(OC3CCOC3)cccc2c1N1CCN(c2ccccc2F)CC1 (racemic) [listing 1 of 2 here]		5.89	pEC50 [3]: 6.00; Kp uu at 0.25 h [4]: 0.79; fraction unbound at 4 h, 5 µM [5]: 0.03; fraction unbound at 6 h, 5 µM [6]: 0.01; CLint scaled at 1 µM [7]: 75.8 mL/min/kg; fraction unbound at 6 h, 5 µM [8]: 0.006; fraction unbound at 4 h, 5 µM [9]: 0.02; Kp at 0.25 h [10]: 4.36; pKi [11]: < 5.00; CLint scaled at 1 µM [12]: 54 mL/min/kg
N#Cc1cnc2c(OCC3CCOC3)cccc2c1N1CCN(c2ccccc2F)CC1 (racemic)		5.89	
CC(C)Oc1cc(F)cc2c(N3CCN(c4ccccc4F)CC3)c(C#N)cnc12	82	6.16	pEC50 [3]: 6.12; Kp uu at 0.25 h [4]: 1; fraction unbound at 4 h, 5 µM [5]: 0.005; fraction unbound at 6 h, 5 µM [6]: 0.001; CLint scaled at 1 µM [7]: 76.2 mL/min/kg; fraction unbound at 6 h, 5 µM [8]: 0.001; Activity [13]: 54.5%; fraction unbound at 4 h, 5 µM [9]: 0.004; Kp at 0.25 h [10]: 4.99; pKi [11]: < 5.00; CLint scaled at 1 µM [12]: 50.7 mL/min/kg
N#Cc1cnc2c(OCC3CCOC3)cccc2c1N1CCN(c2ccccc2F)CC1 (stereo in doubt; (-)-20f) [listing 1 of 2 here]		5.89	
COc1c(F)ccc2c(N3CCN(c4ccccc4F)CC3)c(C#N)cnc12	53	5.74	pIC50 [11]: 5.52
N#Cc1cnc2c(OCC3CCOC3)cccc2c1N1CCN(c2ccccc2F)CC1 (stereo in doubt; (-)-20f) [listing 2 of 2 here]	89		
N#Cc1cnc2c(OC3CCOC3)cccc2c1N1CCN(c2ccccc2F)CC1 (racemic) [listing 2 of 2 here]	74		Activity [13]: 62.2%

Now from value to compound, other results behind:

Activity [1] [%]	pEC50 [2]	Structure (SMILES)	further results
77		N#Cc1cnc2c(OCC3CCOC3)cccc2c1N1CCN(c2ccccc2F)CC1 (single isomer, unassigned; (+))	
22	< 5.00	N#Cc1cnc2c(-n3cccn3)cccc2c1N1CCN(c2ccccc2F)CC1	
62	5.96	COc1c(F)c(F)cc2c(N3CCN(c4ccccc4F)CC3)c(C#N)cnc12	pIC50 [11]: 5.66
67	5.74	N#Cc1cnc2c(OC3CCC3)cccc2c1N1CCN(c2ccccc2F)CC1	
84	5.15	CC1CN(c2cccc3c(N4CCN(c5ccccc5F)CC4)c(C#N)cnc23)CCO1 (stereo not drawn)	
	5.96	N#Cc1cnc2c(OC3CCOC3)cccc2c1N1CCN(c2ccccc2F)CC1 (single isomer, unassigned; (+))	
35	< 5.00	COc1ccc(F)c2c(N3CCN(c4ccccc4F)CC3)c(C#N)cnc12	pIC50 [11]: 5.40
76	6.19	N#Cc1cnc2c(OCC3CCOC3)cc(F)cc2c1N1CCN(c2ccccc2F)CC1 (stereo not drawn)	
